# Reference: paper PMC5290327, “SC83288 is a clinical development candidate for the treatment of severe malaria” (Nature Communications, 2017)
# Experiments:
# Assay in all cases: KINOMEscan
# Type in all cases: binding
# Details in all cases: read-out: Remaining enzyme activity
# ABL1(Q252H) = biological target: T1, ABL1(Q252H) (Homo sapiens, UniProt P00519, Q252H)
# T1 construct: purchased Ambit (DiscoverX) KINOMEscan; Cerep
# In short: (§1)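 Each kinase, tagged with DNA, is partitioned between test compound and an immobilized active-site ligand; qPCR of the eluate reports the bound fraction. SC81458 dosed once, 10 μM final concentration.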
# CAMKK2 = biological target: T2, CAMKK2 (Homo sapiens, UniProt Q96RR4)
# T2 construct: purchased Ambit (DiscoverX) KINOMEscan; Cerep
# In short: as §1
# CDK5 = biological target: T3, CDK5 (Homo sapiens, UniProt Q00535)
# T3 construct: purchased Ambit (DiscoverX) KINOMEscan; Cerep
# T3 sequence (Q00535 whole entry): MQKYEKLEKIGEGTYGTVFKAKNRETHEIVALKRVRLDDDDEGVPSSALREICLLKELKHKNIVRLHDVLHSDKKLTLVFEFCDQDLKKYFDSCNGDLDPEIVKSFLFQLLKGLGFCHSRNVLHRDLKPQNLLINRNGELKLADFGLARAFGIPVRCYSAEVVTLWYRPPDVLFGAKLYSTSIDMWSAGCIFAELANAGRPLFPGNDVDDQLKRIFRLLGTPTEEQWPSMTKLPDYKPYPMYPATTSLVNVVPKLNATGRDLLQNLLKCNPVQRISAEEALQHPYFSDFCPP
# In short: as §1
# CHEK1 = biological target: T4, CHEK1 (Homo sapiens, UniProt O14757)
# T4 construct: purchased Ambit (DiscoverX) KINOMEscan; Cerep
# In short: as §1
# CLK4 = biological target: T5, CLK4 (Homo sapiens, UniProt Q9HAZ1)
# T5 construct: purchased Ambit (DiscoverX) KINOMEscan; Cerep
# In short: as §1
# CSNK1a1l = biological target: T6, CSNK1a1l (Homo sapiens, UniProt Q8N752)
# T6 construct: purchased Ambit (DiscoverX) KINOMEscan; Cerep
# In short: as §1
# DMPK = biological target: T7, DMPK (Homo sapiens, UniProt Q09013)
# T7 construct: purchased Ambit (DiscoverX) KINOMEscan; Cerep
# In short: as §1
# DYRK1b = biological target: T8, DYRK1b (Homo sapiens, UniProt Q9Y463)
# T8 construct: purchased Ambit (DiscoverX) KINOMEscan; Cerep
# In short: as §1
# EGFR(L747-T751del, Sins) = biological target: T9, EGFR(L747-T751del, Sins) (Homo sapiens, UniProt P00533, DEL747-750/T751S)
# T9 construct: purchased Ambit (DiscoverX) KINOMEscan; Cerep
# T9 sequence (P00533 with tags, fused parts or gaps DEL747-750/T751S limits assumed): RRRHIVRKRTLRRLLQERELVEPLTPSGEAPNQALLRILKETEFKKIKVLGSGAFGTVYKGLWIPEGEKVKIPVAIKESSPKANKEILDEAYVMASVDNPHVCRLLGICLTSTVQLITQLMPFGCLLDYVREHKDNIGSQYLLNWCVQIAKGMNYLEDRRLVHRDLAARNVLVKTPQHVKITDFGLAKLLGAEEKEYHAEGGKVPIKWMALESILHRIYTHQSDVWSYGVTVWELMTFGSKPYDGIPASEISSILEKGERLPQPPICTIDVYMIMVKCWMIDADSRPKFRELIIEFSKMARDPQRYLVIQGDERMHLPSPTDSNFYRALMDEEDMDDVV
# In short: as §1
# EPHB1 = biological target: T10, EPHB1 (Homo sapiens, UniProt P54762)
# T10 construct: purchased Ambit (DiscoverX) KINOMEscan; Cerep
# T10 sequence (P54762 18-984): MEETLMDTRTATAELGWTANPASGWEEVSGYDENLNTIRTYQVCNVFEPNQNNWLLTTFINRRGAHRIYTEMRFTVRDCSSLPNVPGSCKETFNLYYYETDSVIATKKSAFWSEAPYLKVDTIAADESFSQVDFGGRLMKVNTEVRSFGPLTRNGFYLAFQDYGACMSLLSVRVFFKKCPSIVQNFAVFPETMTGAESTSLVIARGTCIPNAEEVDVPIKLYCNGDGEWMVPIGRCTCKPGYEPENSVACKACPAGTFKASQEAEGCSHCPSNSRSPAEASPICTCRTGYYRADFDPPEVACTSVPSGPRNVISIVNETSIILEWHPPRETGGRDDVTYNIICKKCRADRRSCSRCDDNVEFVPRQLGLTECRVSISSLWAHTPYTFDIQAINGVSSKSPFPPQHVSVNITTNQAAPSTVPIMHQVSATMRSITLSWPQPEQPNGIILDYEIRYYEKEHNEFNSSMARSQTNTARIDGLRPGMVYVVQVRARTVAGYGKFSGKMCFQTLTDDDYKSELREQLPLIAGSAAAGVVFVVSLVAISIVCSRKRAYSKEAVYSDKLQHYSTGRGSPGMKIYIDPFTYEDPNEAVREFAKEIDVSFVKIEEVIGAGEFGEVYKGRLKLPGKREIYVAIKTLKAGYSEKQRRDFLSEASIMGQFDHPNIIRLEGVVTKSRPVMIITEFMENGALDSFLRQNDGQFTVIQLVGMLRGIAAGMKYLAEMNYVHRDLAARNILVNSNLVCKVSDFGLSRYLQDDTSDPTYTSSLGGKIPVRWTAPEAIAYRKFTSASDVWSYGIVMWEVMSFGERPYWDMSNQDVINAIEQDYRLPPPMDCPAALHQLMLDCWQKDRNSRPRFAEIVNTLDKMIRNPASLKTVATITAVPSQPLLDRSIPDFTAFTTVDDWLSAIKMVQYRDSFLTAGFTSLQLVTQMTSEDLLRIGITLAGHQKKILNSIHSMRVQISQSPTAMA
# In short: as §1
# FGFR3 = biological target: T11, FGFR3 (Homo sapiens, UniProt P22607)
# T11 construct: purchased Ambit (DiscoverX) KINOMEscan; Cerep
# In short: as §1
# HIPK3 = biological target: T12, HIPK3 (Homo sapiens, UniProt Q9H422)
# T12 construct: purchased Ambit (DiscoverX) KINOMEscan; Cerep
# In short: as §1
# IGF1R = biological target: T13, IGF1R (Homo sapiens, UniProt P08069)
# T13 construct: purchased Ambit (DiscoverX) KINOMEscan; Cerep
# T13 sequence (P08069 31-1367): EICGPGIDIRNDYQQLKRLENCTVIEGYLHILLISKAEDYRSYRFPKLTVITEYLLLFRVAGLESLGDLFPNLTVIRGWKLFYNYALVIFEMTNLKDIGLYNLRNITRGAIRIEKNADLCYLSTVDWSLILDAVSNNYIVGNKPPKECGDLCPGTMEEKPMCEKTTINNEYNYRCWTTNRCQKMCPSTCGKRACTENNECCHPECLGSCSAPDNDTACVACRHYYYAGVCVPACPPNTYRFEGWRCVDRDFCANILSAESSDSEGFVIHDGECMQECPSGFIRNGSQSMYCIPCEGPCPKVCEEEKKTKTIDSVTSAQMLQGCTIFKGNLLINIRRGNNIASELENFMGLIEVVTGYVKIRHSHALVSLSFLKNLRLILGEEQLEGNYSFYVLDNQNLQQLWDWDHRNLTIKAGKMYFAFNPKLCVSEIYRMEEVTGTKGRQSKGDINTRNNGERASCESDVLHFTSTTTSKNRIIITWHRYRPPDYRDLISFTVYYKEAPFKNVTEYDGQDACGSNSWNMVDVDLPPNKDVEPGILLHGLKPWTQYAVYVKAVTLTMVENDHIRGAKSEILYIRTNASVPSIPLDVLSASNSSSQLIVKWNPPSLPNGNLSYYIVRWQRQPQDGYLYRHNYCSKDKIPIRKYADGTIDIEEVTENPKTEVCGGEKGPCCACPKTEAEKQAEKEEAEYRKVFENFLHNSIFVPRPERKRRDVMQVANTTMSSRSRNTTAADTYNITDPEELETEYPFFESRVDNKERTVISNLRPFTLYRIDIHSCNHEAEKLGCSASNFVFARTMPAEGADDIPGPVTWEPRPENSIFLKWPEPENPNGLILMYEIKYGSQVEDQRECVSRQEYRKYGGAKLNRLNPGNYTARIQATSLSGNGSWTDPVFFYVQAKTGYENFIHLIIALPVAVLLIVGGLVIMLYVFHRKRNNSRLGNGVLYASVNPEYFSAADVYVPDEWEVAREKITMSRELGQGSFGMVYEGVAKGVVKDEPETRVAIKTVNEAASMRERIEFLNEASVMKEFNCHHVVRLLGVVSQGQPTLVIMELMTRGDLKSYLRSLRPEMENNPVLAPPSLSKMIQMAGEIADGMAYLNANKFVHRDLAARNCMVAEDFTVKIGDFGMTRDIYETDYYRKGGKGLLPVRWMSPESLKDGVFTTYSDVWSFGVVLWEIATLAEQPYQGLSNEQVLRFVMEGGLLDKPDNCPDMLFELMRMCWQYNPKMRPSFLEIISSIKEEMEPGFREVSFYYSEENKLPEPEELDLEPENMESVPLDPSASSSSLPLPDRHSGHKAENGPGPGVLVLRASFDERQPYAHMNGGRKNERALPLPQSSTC
# In short: as §1
# IKK-alpha = biological target: T14, IKK-alpha (Homo sapiens, UniProt O15111)
# T14 construct: purchased Ambit (DiscoverX) KINOMEscan; Cerep
# In short: as §1
# [1] = biological target: T15, JAK1(JH2domain-pseudokinase) (Homo sapiens, UniProt P23458)
# T15 construct: JAK1(JH2domain-pseudokinase); purchased Ambit (DiscoverX) KINOMEscan; Cerep
# T15 sequence (P23458 583-855 limits assumed): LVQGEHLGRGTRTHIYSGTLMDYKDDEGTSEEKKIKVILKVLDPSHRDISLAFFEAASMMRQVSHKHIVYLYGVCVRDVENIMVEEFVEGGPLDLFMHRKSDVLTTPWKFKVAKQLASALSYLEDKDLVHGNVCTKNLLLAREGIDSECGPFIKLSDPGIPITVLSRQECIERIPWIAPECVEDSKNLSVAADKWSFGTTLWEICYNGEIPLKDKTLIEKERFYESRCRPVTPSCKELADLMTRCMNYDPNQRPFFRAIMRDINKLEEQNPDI
# In short: as §1
# JNK3 = biological target: T16, JNK3 (Homo sapiens, UniProt P53779)
# T16 construct: purchased Ambit (DiscoverX) KINOMEscan; Cerep
# T16 sequence (P53779 whole entry): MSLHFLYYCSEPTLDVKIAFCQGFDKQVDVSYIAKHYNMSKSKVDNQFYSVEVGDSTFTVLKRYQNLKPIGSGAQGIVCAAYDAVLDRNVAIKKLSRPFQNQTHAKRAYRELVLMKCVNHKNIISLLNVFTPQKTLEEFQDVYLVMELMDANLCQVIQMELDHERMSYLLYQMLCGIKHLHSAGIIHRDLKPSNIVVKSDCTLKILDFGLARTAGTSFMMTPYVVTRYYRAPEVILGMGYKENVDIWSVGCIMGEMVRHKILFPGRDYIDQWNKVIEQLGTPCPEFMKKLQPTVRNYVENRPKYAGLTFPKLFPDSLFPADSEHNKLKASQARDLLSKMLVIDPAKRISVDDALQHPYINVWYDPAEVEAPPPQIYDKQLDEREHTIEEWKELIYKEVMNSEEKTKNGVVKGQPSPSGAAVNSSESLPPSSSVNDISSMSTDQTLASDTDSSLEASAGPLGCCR
# In short: as §1
# MET = biological target: T17, MET (Homo sapiens, UniProt P08581)
# T17 construct: purchased Ambit (DiscoverX) KINOMEscan; Cerep
# In short: as §1
# NEK7 = biological target: T18, NEK7 (Homo sapiens, UniProt Q8TDX7)
# T18 construct: purchased Ambit (DiscoverX) KINOMEscan; Cerep
# In short: as §1
# PIK3Cd = biological target: T19, PIK3Cd (Homo sapiens, UniProt O00329)
# T19 construct: purchased Ambit (DiscoverX) KINOMEscan; Cerep
# In short: as §1
# PIP5K2b = biological target: T20, PIP5K2b (Homo sapiens, UniProt P78356)
# T20 construct: purchased Ambit (DiscoverX) KINOMEscan; Cerep
# In short: as §1
# PLK1 = biological target: T21, PLK1 (Homo sapiens, UniProt P53350)
# T21 construct: purchased Ambit (DiscoverX) KINOMEscan; Cerep
# In short: as §1
# PLK2 = biological target: T22, PLK2 (Homo sapiens, UniProt Q9NYY3)
# T22 construct: purchased Ambit (DiscoverX) KINOMEscan; Cerep
# In short: as §1
# RET(M918T) = biological target: T23, RET(M918T) (Homo sapiens, UniProt P07949, M918T)
# T23 construct: purchased Ambit (DiscoverX) KINOMEscan; Cerep
# T23 sequence (P07949 29-1114 M918T): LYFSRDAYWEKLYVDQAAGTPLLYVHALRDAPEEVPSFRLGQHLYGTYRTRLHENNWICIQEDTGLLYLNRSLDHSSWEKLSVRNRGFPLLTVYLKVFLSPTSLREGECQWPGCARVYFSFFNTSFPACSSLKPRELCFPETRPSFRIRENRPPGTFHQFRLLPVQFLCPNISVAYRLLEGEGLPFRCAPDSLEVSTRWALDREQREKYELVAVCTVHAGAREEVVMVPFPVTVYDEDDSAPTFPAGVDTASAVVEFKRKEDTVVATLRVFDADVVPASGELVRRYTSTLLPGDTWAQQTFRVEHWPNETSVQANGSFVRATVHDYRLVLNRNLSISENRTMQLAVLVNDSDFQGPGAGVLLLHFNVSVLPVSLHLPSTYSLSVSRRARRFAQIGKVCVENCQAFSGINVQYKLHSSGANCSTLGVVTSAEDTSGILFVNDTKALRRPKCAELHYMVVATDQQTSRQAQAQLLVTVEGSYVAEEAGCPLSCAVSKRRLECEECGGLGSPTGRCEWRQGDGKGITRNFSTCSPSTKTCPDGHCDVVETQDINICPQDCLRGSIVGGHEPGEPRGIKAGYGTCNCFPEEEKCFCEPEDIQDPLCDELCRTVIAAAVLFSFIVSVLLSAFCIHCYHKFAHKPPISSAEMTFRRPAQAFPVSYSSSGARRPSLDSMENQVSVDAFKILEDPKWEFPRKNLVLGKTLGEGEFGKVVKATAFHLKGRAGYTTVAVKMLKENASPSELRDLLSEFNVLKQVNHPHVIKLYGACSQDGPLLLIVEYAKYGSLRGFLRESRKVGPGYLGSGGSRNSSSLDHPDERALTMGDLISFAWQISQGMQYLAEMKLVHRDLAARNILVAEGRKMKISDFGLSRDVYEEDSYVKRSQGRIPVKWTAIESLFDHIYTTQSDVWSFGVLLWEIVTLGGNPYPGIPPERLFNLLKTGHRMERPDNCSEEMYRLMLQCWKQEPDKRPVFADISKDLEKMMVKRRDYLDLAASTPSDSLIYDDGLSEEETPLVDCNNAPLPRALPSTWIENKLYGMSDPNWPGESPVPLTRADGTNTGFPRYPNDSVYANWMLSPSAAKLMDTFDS
# In short: as §1
# SBK1 = biological target: T24, SBK1 (Homo sapiens, UniProt Q52WX2)
# T24 construct: purchased Ambit (DiscoverX) KINOMEscan; Cerep
# In short: as §1
# SIK2 = biological target: T25, SIK2 (Homo sapiens, UniProt Q9H0K1)
# T25 construct: purchased Ambit (DiscoverX) KINOMEscan; Cerep
# In short: as §1
# SLK = biological target: T26, SLK (Homo sapiens, UniProt Q9H2G2)
# T26 construct: purchased Ambit (DiscoverX) KINOMEscan; Cerep
# In short: as §1
# SRMS = biological target: T27, SRMS (Homo sapiens, UniProt Q9H3Y6)
# T27 construct: purchased Ambit (DiscoverX) KINOMEscan; Cerep
# In short: as §1
# STK33 = biological target: T28, STK33 (Homo sapiens, UniProt Q9BYT3)
# T28 construct: purchased Ambit (DiscoverX) KINOMEscan; Cerep
# In short: as §1
# STK39 = biological target: T29, STK39 (Homo sapiens, UniProt Q9UEW8)
# T29 construct: purchased Ambit (DiscoverX) KINOMEscan; Cerep
# In short: as §1
# TBK1 = biological target: T30, TBK1 (Homo sapiens, UniProt Q9UHD2)
# T30 construct: purchased Ambit (DiscoverX) KINOMEscan; Cerep
# In short: as §1
# TIE1 = biological target: T31, TIE1 (Homo sapiens, UniProt P35590)
# T31 construct: purchased Ambit (DiscoverX) KINOMEscan; Cerep
# In short: as §1
# WEE2 = biological target: T32, WEE2 (Homo sapiens, UniProt P0C1S8)
# T32 construct: purchased Ambit (DiscoverX) KINOMEscan; Cerep
# In short: as §1
# YES = biological target: T33, YES (Homo sapiens, UniProt P07947)
# T33 construct: purchased Ambit (DiscoverX) KINOMEscan; Cerep
# In short: as §1
# p38-delta = biological target: T34, p38-delta (Homo sapiens, UniProt O15264)
# T34 construct: purchased Ambit (DiscoverX) KINOMEscan; Cerep
# In short: as §1
smiles,measurement,setting,value
"CCCCN1CCN(C(=N)c2cccc(NC(=O)Nc3ccc(S(=O)(=O)NCc4ccc(S(N)(=O)=O)cc4)cc3)c2)CC1 [SC81458, 4-(3-(3-((4-butylpiperazin-1-yl)(imino)methyl)phenyl)ureido)-N-(4-sulfamoylbenzyl) benzenesulfonamide]",remaining binding at 10 µM,ABL1(Q252H),95%
same,remaining binding at 10 µM,CAMKK2,100%
same,remaining binding at 10 µM,CDK5,100%
same,remaining binding at 10 µM,CHEK1,98%
same,remaining binding at 10 µM,CLK4,92%
same,remaining binding at 10 µM,CSNK1a1l,100%
same,remaining binding at 10 µM,DMPK,76%
same,remaining binding at 10 µM,DYRK1b,87%
same,remaining binding at 10 µM,"EGFR(L747-T751del, Sins)",69%
same,remaining binding at 10 µM,EPHB1,84%
same,remaining binding at 10 µM,FGFR3,100%
same,remaining binding at 10 µM,HIPK3,99%
same,remaining binding at 10 µM,IGF1R,77%
same,remaining binding at 10 µM,IKK-alpha,100%
same,remaining binding at 10 µM,[1],89%
same,remaining binding at 10 µM,JNK3,100%
same,remaining binding at 10 µM,MET,78%
same,remaining binding at 10 µM,NEK7,95%
same,remaining binding at 10 µM,PIK3Cd,73%
same,remaining binding at 10 µM,PIP5K2b,84%
same,remaining binding at 10 µM,PLK1,96%
same,remaining binding at 10 µM,PLK2,100%
same,remaining binding at 10 µM,RET(M918T),100%
same,remaining binding at 10 µM,SBK1,72%
same,remaining binding at 10 µM,SIK2,100%
same,remaining binding at 10 µM,SLK,100%
same,remaining binding at 10 µM,SRMS,79%
same,remaining binding at 10 µM,STK33,100%
same,remaining binding at 10 µM,STK39,57%
same,remaining binding at 10 µM,TBK1,100%
same,remaining binding at 10 µM,TIE1,99%
same,remaining binding at 10 µM,WEE2,100%
same,remaining binding at 10 µM,YES,97%
same,remaining binding at 10 µM,p38-delta,89%
